Earlier results as cited in PMC6399674 (The Journal of Organic Chemistry, 2019).
Like-named read-outs stand apart in the source and are kept apart here.

Target: T1, lectin LecA (Pseudomonas aeruginosa, UniProt Q05097)
T1 sequence (Q05097 1-122): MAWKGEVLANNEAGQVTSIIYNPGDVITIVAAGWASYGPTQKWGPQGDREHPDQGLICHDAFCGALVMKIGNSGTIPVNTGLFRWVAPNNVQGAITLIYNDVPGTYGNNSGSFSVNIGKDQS
Details: ITC

Kd [µM] | Structure (SMILES) | n (stoichiometry) | ΔG | ΔH | –TΔS [kcal/mol] | Kd (as stated in text) [µM]
– | O=C[C@H](O)[C@@H](O)[C@@H](O)[C@H](O)CO [D-dalactose, galactose] | 1.1 | –5.5 kcal/mol | –7.9 kcal/mol | 2.3 | 70 to 90
8.8 | OC[C@H]1O[C@@H](Oc2ccccc2)[C@H](O)[C@@H](O)[C@H]1O [Gal-β-OPh] | 0.9 | –6.9 kcal/mol | –11.2 kcal/mol | 4.8 | ~9
